This is an account of results in patent US20100048660A1, “TREATMENT OF DUCHENNE MUSCULAR DYSTROPHY” (priority 2006, published 2010).

A value given as a limit tells only on which side of the number the result lay.

One assay has as its system Utrophin A promoter linked to a luciferase reporter gene (H2K/mdx/Utro A reporter cell line). In words: Luciferase reporter assay (murine H2K cells). Particulars: Mus musculus; Table 1; murine H2K mdx myoblasts, compound final concentration 10 μM, 48 hrs; read-out: Activity (luciferase reporter assay, relative to control). In kind it is cell-based. The procedure:
1. Luciferase Reporter Assay (Murine H2K Cells)
The cell line used for the screen is an immortalized mdx mouse H2K cell line that has been stably transfected with a plasmid containing ≈5 kb fragment of the Utrophin A promoter including the first untranslated exon linked to a luciferase reporter gene (see FIG. 1).
Under conditions of low temperature and interferon containing media, the cells remain as myoblasts. These are plated into 96 well plates and cultured in the presence of compound for three days. The level of luciferase is then determined by cell lysis and reading of the light output from the expressed luciferase gene utilising a plate luminometer.
The H2K/mdx/Utro A reporter cell line was passaged twice a week until ≦30% confluent. The cells were grown at 33° C. in the presence of 10% CO2
The H2K/mdx/Utro A reporter cell line cells were plated out into 96 well plates (Falcon 353296, white opaque) at a density of approximately 5000 cells/well in 190 μl normal growth medium. The plates were then incubated at 33° C. in the presence of 10% CO2 for 24 hrs.
Compounds were dosed by adding 10 μl of diluted compound to each well giving a final concentration of 10 μM. The plates were then incubated for a further 48 hrs
Cells were then lysed in situ following the manufacture's protocols (Promega Steady-Glo Luciferase Assay System (E2520). Then counted for 10 seconds using a plate luminometer (Victorl420).
In general terms: In a reporter assay the amount or activity of a reporter protein is the signal.
For `CS(=O)(=O)c1ccc2nn(-c3ccc4ccccc4c3)[n+]([O-])c2c1` [Example 54, 6-(Methylsulfonyl)-2-(naphthalen-2-yl)-2H-benzo[d][1,2,3]triazole 1-oxide], the activity at 10 µM was in the range of 201 to 300%.

Take `CS(=O)(=O)c1ccc2nn(-c3ccc(Cl)cc3)nc2c1` [Example 49, 2-(4-chlorophenyl)-5-(methylsulfonyl)-2H-benzo[d][1,2,3]triazole]: the activity at 10 µM was below 200%.

Regarding `Cc1cc2nn(-c3ccc(Cl)cc3)nc2cc1NC(=O)c1ccccc1` [Example 3, N-(2-(4-chlorophenyl)-6-methyl-2H-benzo[d][1,2,3]triazol-5-yl)benzamide], the activity at 10 µM is below 200%.

As to `CCN(CC)c1ccc(-n2nc3ccc(NC(=O)c4cccs4)cc3n2)cc1` [Example 28, N-(2-(4-(diethylamino)phenyl)-2H-benzo[d][1,2,3]triazol-5-yl)thiophene-2-carboxamide], the activity at 10 µM is below 200%.

For the molecule `CCN(CC)c1ccc(-n2nc3cc(C)c(NC(=O)c4ccncc4)cc3n2)cc1` [Example 13, N-(2-(4-(diethylamino)phenyl)-6-methyl-2H-benzo[d][1,2,3]triazol-5-yl)isonicotinamide], the activity at 10 µM fell in the range of 301 to 400%.

On to `CCN(CC)c1ccc(-n2nc3cc(C)c(NC(=O)c4cccnc4)cc3n2)cc1` [Example 12, N-(2-(4-(diethylamino)phenyl)-6-methyl-2H-benzo[d][1,2,3]triazol-5-yl)nicotinamide], for which the activity at 10 µM lay in the range of 301 to 400%.

Consider `CS(=O)(=O)c1ccc2cn(-c3ccc(Cl)cc3)nc2c1` [Example 44, 2-(4-chlorophenyl)-6-(methylsulfonyl)-2H-indazole], for which the activity at 10 µM is 201 to 300%.

Regarding `COc1ccccc1C(=O)Nc1cc2nn(-c3ccc(Cl)cc3)nc2cc1C` [Example 5, N-(2-(4-chlorophenyl)-6-methyl-2H-benzo[d][1,2,3]triazol-5-yl)-2-methoxybenzamide], the activity at 10 µM was below 200%.

Consider `CCN(CC)c1ccc(-n2nc3ccc(NC(=O)c4ccc(Cl)cc4)cc3n2)cc1` [Example 32, 4-chloro-N-(2-(4-(diethylamino)phenyl)-2H-benzo[d][1,2,3]triazol-5-yl)benzamide], for which the activity at 10 µM is below 200%.

As to `CCN(CC)c1ccc(-n2nc3cc(C)c(NC(=O)c4ccco4)cc3n2)cc1` [Example 18, N-(2-(4-(diethylamino)phenyl)-6-methyl-2H-benzo[d][1,2,3]triazol-5-yl)furan-2-carboxamide], the activity at 10 µM is below 200%.

As for `CCN(CC)c1ccc(-n2nc3ccc(NC(=O)c4ccccc4OC)cc3n2)cc1` [Example 31, N-(2-(4-(diethylamino)phenyl)-2H-benzo[d][1,2,3]triazol-5-yl)-2-methoxybenzamide], the activity at 10 µM is below 200%.

As to `CCCC(=O)Nc1cc2nn(-c3ccc(Cl)cc3)nc2cc1C` [Example 8, N-(2-(4-chlorophenyl)-6-methyl-2H-benzo[d][1,2,3]triazol-5-yl)butyramide], the activity at 10 µM is 201 to 300%.

`CCCCC(=O)Nc1cc2nn(-c3ccc(Cl)cc3)nc2cc1C` [Example 9, N-(2-(4-chlorophenyl)-6-methyl-2H-benzo[d][1,2,3]triazol-5-yl)pentanamide]: the activity at 10 µM was in the range of 201 to 300%.

In the case of `CCN(CC)c1ccc(-n2nc3ccc(NC(=O)C(C)C)cc3n2)cc1` [Example 26, N-(2-(4-(diethylamino)phenyl)-2H-benzo[d][1,2,3]triazol-5-yl)isobutyramide], the activity at 10 µM is below 200%.

In the case of `CS(=O)(=O)c1ccc2nn(-c3ccc4ccccc4c3)nc2c1` [Example 55, 5-(Methylsulfonyl)-2-(naphthalen-2-yl)-2H-benzo[d][1,2,3]triazole], the activity at 10 µM is above 401%.

Consider `Cc1cc2nn(-c3ccc(Cl)cc3)nc2cc1N` [Example 43, 2-(4-chlorophenyl)-6-methyl-2H-benzo[d][1,2,3]triazol-5-amine], for which the activity at 10 µM is above 401%.

In the case of `CCCC(=O)Nc1cc2nn(-c3ccc(N(CC)CC)cc3)nc2cc1C` [Example 15, N-(2-(4-(diethylamino)phenyl)-6-methyl-2H-benzo[d][1,2,3]triazol-5-yl)butyramide], the activity at 10 µM is below 200%.

For `CCN(CC)c1ccc(-n2nc3ccc(NC(=O)c4ccncc4)cc3n2)cc1` [Example 21, N-(2-(4-(diethylamino)phenyl)-2H-benzo[d][1,2,3]triazol-5-yl)isonicotinamide], the activity at 10 µM is below 200%.

As to `CCN(CC)c1ccc(-n2nc3cc(C)c(NC(=O)C(C)C)cc3n2)cc1` [Example 17, N-(2-(4-(diethylamino)phenyl)-6-methyl-2H-benzo[d][1,2,3]triazol-5-yl)isobutyramide], the activity at 10 µM is below 200%.

Take `CCC(=O)Nc1ccc2nn(-c3ccc(Cl)cc3)nc2c1` [Example 35, N-(2-(4-chlorophenyl)-2H-benzo[d][1,2,3]triazol-5-yl)propionamide]: the activity at 10 µM was above 401%.

For `CCN(CC)c1ccc(-n2nc3ccc(NC(=O)c4ccccc4)cc3n2)cc1` [Example 29, N-(2-(4-(diethylamino)phenyl)-2H-benzo[d][1,2,3]triazol-5-yl)benzamide], the activity at 10 µM was below 200%.

As to `CCS(=O)(=O)c1ccc2nn(-c3ccc(Cl)cc3)nc2c1` [Example 52, 2-(4′-chlorophenyl)-5-(ethylsulfonyl)-benzotriazole], the activity at 10 µM is above 401%.

`CCC(=O)Nc1ccc2nn(-c3ccc(N(CC)CC)cc3)nc2c1` [Example 23, N-(2-(4-(diethylamino)phenyl)-2H-benzo[d][1,2,3]triazol-5-yl)propionamide]: the activity at 10 µM is below 200%.

Turning to `CCCC(=O)Nc1ccc2nn(-c3ccc(N(CC)CC)cc3)nc2c1` [Example 24, N-(2-(4-(diethylamino)phenyl)-2H-benzo[d][1,2,3]triazol-5-yl)butyramide], the activity at 10 µM is below 200%.

In the case of `CC(=O)Nc1ccc2nn(-c3ccc(Cl)cc3)nc2c1` [Example 39, N-(2-(4-chlorophenyl)-2H-benzo[d][1,2,3]triazol-5-yl)acetamide], the activity at 10 µM is above 401%.

Regarding `Nc1ccc2nn(-c3ccc(N4CCCCC4)cc3)nc2c1` [Example 40, 2-(4-(piperidin-1-yl)phenyl)-2H-benzo[d][1,2,3]triazol-5-amine], the activity at 10 µM lay in the range of 201 to 300%.

Consider `Cc1cc2nn(-c3ccc(N4CCOCC4)cc3)nc2cc1N` [Example 34, 6-methyl-2-(4-morpholinophenyl)-2H-benzo[d][1,2,3]triazol-5-amine], for which the activity at 10 µM fell in the range of 201 to 300%.

In the case of `Cc1cc2nn(-c3ccc(Cl)cc3)nc2cc1NC(=O)c1ccncc1` [Example 2, N-(2-(4-chlorophenyl)-6-methyl-2H-benzo[d][1,2,3]triazol-5-yl)isonicotinamide], the activity at 10 µM lay within 201 to 300%.

`Nc1ccc2nn(-c3ccc(Cl)cc3)nc2c1` [Example 38, 2-(4-chlorophenyl)-2H-benzo[d][1,2,3]triazol-5-amine]: the activity at 10 µM was below 200%.

On to `CS(=O)(=O)c1ccc2nn(-c3ccc(Cl)cc3)[n+]([O-])c2c1` [Example 47, 2-(4-chlorophenyl)-6-(methylsulfonyl)-2H-benzo[d][1,2,3]triazole 1-oxide], for which the activity at 10 µM is below 200%.

`CC(C)C(=O)Nc1ccc2nn(-c3ccc(Cl)cc3)nc2c1` [Example 37, N-(2-(4-chlorophenyl)-2H-benzo[d][1,2,3]triazol-5-yl)isobutyramide]: the activity at 10 µM is above 401%.

Take `Cc1cc2nn(-c3ccc(Cl)cc3)nc2cc1NC(=O)C(C)C` [Example 10, N-(2-(4-chlorophenyl)-6-methyl-2H-benzo[d][1,2,3]triazol-5-yl)isobutyramide]: the activity at 10 µM is 201 to 300%.

Turning to `CCCCC(=O)Nc1ccc2nn(-c3ccc(N(CC)CC)cc3)nc2c1` [Example 25, N-(2-(4-(diethylamino)phenyl)-2H-benzo[d][1,2,3]triazol-5-yl)pentanamide], the activity at 10 µM is below 200%.

`CN1CCN(c2ccc(-n3nc4ccc(N)cc4n3)cc2)CC1` [Example 42, 2-(4-(4-methylpiperazin-1-yl)phenyl)-2H-benzo[d][1,2,3]triazol-5-amine]: the activity at 10 µM was below 200%.

Still in this assay, the particulars now being: Mus musculus; Table 2; murine H2K mdx myoblasts, compound final concentration 10 μM, 48 hrs; read-out: Activity (luciferase reporter assay, relative to control).
Take `COc1ccc(-n2nc3cc(C)c(NC(C)=O)cc3n2)cc1` [Example 66, N-(2-(4-methoxyphenyl)-6-methyl-2H-benzo[d][1,2,3]triazol-5-yl)acetamide]: the activity at 10 µM was below 200%.

On to `CCc1ccc(-n2nc3ccc(N)cc3n2)cc1` [Example 68, 2-(4-ethylphenyl)-2H-benzo[d][1,2,3]triazol-5-amine], for which the activity at 10 µM lay within 201 to 300%.

For `CC(=O)Nc1cc2nn(-c3ccccc3)nc2cc1C` [Example 67, N-(6-methyl-2-phenyl-2H-benzo[d][1,2,3]triazol-5-yl)acetamide], the activity at 10 µM lay in the range of 201 to 300%.

As to `CC(=O)Nc1ccc2nn(-c3ccc(F)cc3)nc2c1` [Example 69, N-(2-(4-fluorophenyl)-2H-benzo[d][1,2,3]triazol-5-yl)acetamide], the activity at 10 µM was 201 to 300%.

`CCOc1ccc(-n2nc3cc(C)c(N)cc3n2)cc1` [Example 64, 2-(4-ethoxyphenyl)-6-methyl-2H-benzo[d][1,2,3]triazol-5-amine]: the activity at 10 µM lay within 201 to 300%.
